Entries after “also recorded” stand apart in the source; their conditions may differ.
What was measured:
rd10 mice = conditions: cited from earlier work
[1] = test system: GO-induced cataract in isolated rat lens; test: GO-induced cataract in isolated rat lens; format: cell-based, Wistar rats; conditions: for lens opacities after GO-cataract induction: 10 mM pre-treatment 18 hours, then 1 μg/mL GO 24 hours, vs GO-cataract induction alone; for visibility of underlying grid after GO-cataract induction: 10 mM pre-treatment, then GO, vs GO group
Method: (§1) Lenses were extracted from 3-week-old male or female Wistar rats using an existing Animal Ethics Approval for tissue collection. Rats were euthanized using CO2, eyes were enucleated and lenses dissected from the globe and incubated in either Dulbecco's modified eagle's medium (low glucose; DMEM; Savion et al., 2019) or Media 199, no phenol red with Glutamine, with 1% penicillin, streptomycin, neomycin mixture for 6 hours, under normoxic conditions with 5% CO2. At the end of the 6-hour incubation, lenses were imaged under darkfield and brightfield microscopy and only clear, transparent lenses were used for further experimentation.
(§2) Control group: Lenses were incubated for a further 18 hours at which time, darkfield and brightfield images were taken. Lenses were placed in fresh media and then incubated for another 24 hours in DMEM or M199 with 1% PSN. Images were then taken to assess lens transparency.
(§3) 10 mM diNACA pre-treatment group: After the initial 6-hour incubation, clear lenses were cultured in 10 mM diNACA (NPI-002) for 18 hours. Images were taken, and then lenses were placed in fresh media containing 1 μg/mL of glucose oxidase (GO). Lenses were then incubated for a further 24 hours, after which images were taken to assess lens transparency
(§4) 10 mM NACA pre-treatment group: After the initial 6-hour incubation, clear lenses were cultured in 10 mM NACA (NPI-001) for 18 hours. Images were taken, and then lenses placed in fresh media containing 1 μg/mL of GO. Lenses were then incubated for a further 24 hours, after which images were taken to assess lens transparency
Method: Isolated rat lenses were pre-treated with NACA or diNACA followed by GO.

[2] = test system: H2O2-induced cataract in isolated porcine lens; test: H2O2-induced cataract in isolated porcine lens; format: cell-based, pigs; conditions: for H2O2-induced cataract: 24 hours pre-incubation, then H2O2 plus GO 6 hours
Method: Method: Lenses were harvested from fresh eyes from pigs. These lenses were first incubated in 4-5 mL TC-199 medium and 1% pig serum in a 12-well plate for two hours. At the end of the incubation, lenses were imaged under darkfield microscopy and only clear, transparent lenses were used for further experimentation. Lens were pre-incubated with NAC, NACA, diNACA for 24 hours. After the pretreatment, the lenses were transferred to media containing hydrogen peroxide (H2O2) plus GO for maintaining a constant H2O2 level during incubation similarly to a published method (Wang et al., 1997). At the end of the 6-hour incubation, lenses were imaged under darkfield microscopy (FIG. 3).

isolated rat lens = test: Effect of NACA or diNACA alone on rat lens transparency; format: cell-based, Wistar rats; conditions: 10 mM, no oxidative agent
Method: as §1, §2, §3, §4

retinas of diabetic rats = conditions: cited from earlier work
[3] = oral dose of 600 mg in humans; cited from earlier work
rabbit = test: NPI-002 IVT implant single dose 3-week safety study in rabbit; format: in vivo, New Zealand White rabbits; conditions: resolved by Day 23, associated with 22-gauge needle injection procedure
Method: A study was conducted to evaluate intravitreal injection of di-NACA as suspension or implant and NACA solution in rabbit. The objectives were to assess safety and whether the implant could deliver diNACA, NACA, and NAC to ocular tissues. A sterile intravitreal implant containing diNACA was prepared (Formulation 1896-08, a fast-releasing implant; FIG. 7). Female New Zealand White rabbits were administered two NPI-002 IVT implants per eye (total dose of NPI-002, 0.8 mg/eye). One group of animals received IVT placebo implants without any test article.
Prior to placement on study, an ophthalmic examination was conducted on each rabbit including slit-lamp biomicroscopy and indirect ophthalmoscopy. Ocular findings were scored according to a modified McDonald-Shadduck Scoring.
Clinical ophthalmic examinations were performed at baseline and on Days 8 and 23 post-dose. General health observations were performed daily. Body weights were recorded at baseline and prior to termination.
Sterile NPI-002 or placebo IVT implants were provided pre-loaded in 22 G beveled needle with wire plunger (1 implant/needle) and injected into VH. NPI-002 suspension and NPI-001 solution were prepared in sterile phosphate buffer and injected into VH.
Animals were euthanized on Day 8, 15, or 23, and ocular tissue was collected and […]

[4] = Repeated dose topical ocular administration in rabbit: NACA in aqueous humor (LC-MS); format: in vivo, Dutch Belted rabbits
Method: A study was conducted to evaluate effects of diNACA or NACA topical ocular dosing in rabbit. Ophthalmic formulations were developed containing either 1% diNACA or 1% NACA that were used for repeated topical ocular instillation to Dutch Belted rabbits. Three animals per group were dosed four times a day at approximately 8:00 AM, 11:00 AM, 2:00 PM, and 4:00 PM on Days 1-6, and once on Day 7 at approximately 8:00 AM, via bilateral topical administration with each test article. Ocular tolerability was assessed at baseline and prior to the first daily dose by means of scoring chemosis, discharge, and hyperemia (Draize scoring). Ocular tissue was harvested at necropsy (Day 7). A qualified analytical LC-MS method was developed and used to quantitate NACA levels in aqueous humor (AH).

[5] = target: glutamate cysteine ligase (GCL, EC 6.3.2.2); conditions: read-out: Ki (nonallosteric competitive inhibition of GCL); cited from earlier work

## N-acetylcysteine amide [NACA]
rd10 mice; mouse model of RP
  visual parameters: improve, to a greater extent than NAC, visual parameters
rd10 mice; rd10 mice, 7-fold lower dose than NAC
  preservation of cone function and survival compared to NAC: greater preservation of cone function and survival
[1]
  lens opacities after GO-cataract induction: reduced opacities compared to cataract induction alone
  visibility of underlying grid after GO-cataract induction: more clearly visible
[2]
  H2O2-induced cataract: dose-dependently prevented H2O2-induced cataract
Isolated rat lens
  lens transparency after compound alone: developed a subtle thin rim opacity on the edge; also recorded: slight ring opacity developed

## CC(=O)N[C@@H](CS)C(=O)O [NAC, N-acetylcysteine]
rd10 mice; rd10 mice, NAC in drinking water, vs untreated
  oxidative damage, cone survival and function: dose-dependent, statistically significant reduction in oxidative damage and improvements in cone survival and function
Retinas of diabetic rats; 3 and 5 months
  retinal pathological changes (retinopathy): alleviated the pathological changes
Retinas of diabetic rats; most significantly at 5 months
  reactive oxygen species contents in the retinas: decreased reactive oxygen species
Retinas of diabetic rats; returned to basal levels after 5-month treatment
  VEGF and ICAM-1 expression in retinal blood vessels: up-regulation was attenuated
[2]
  H2O2-induced cataract: dose-dependently prevented H2O2-induced cataract
[3]
  time after administration at which no NAC is detectable: 10 to 12 h

## CC(=O)N[C@@H](CSSC[C@H](NC(C)=O)C(N)=O)C(N)=O [diNACA, (2R,2R′)-3,3′-disulfanediyl bis(2-acetamidopropanamide)]
[1]
  lens opacities after GO-cataract induction: reduced lens opacities
  visibility of underlying grid after GO-cataract induction: improved grid visibility
[1]; listed as NPI-002
  lens opacities after GO-cataract induction: prevented oxidative-induced cataract
[2]
  H2O2-induced cataract: dose-dependently prevented H2O2-induced cataract
[2]; listed as NPI-002
  H2O2-induced cataract: prevented oxidative-induced cataract
[2]; H2O2-induced cataract
  protective effects on the lens as compared with NAC, NACA: better protective effects on the lens
Isolated rat lens
  lens transparency after compound alone: remained absolutely clear and transparent; also recorded: tolerated exposure to diNACA better than NACA
Isolated rat lens; listed as NPI-002
  lens transparency after compound alone: maintained lens transparency slightly better than NPI-001 (NACA) alone
rabbit
  clinical ophthalmic examination findings on Day 8: Mild to moderate conjunctival congestion, swelling and discharge
[4]
  ocular penetration following topical ocular dosing: penetrates the eye

## N[C@@H](CCC(=O)N[C@@H](CS)C(=O)NCC(=O)O)C(=O)O [GSH, c-L-glutamyl-L-cysteinyl-glycine]
[5]
  Ki: 2300 µM

From patent US20240008971A1, “Ophthalmic Implant” (Nacuity Pharmaceuticals, Inc., priority 2022, published 2024)
